# Results published in US9932300B2, “N,N′-diarylurea compounds and N,N′-diarylthiourea compounds as inhibitors of translation initiation” (President and Fellows of Harvard College, priority 2009, dated 2018).
# Tested on: eIF2-GTP-Met-tRNAi ternary complex
# Assay: Ternary complex assay (dual luciferase, firefly/renilla ratio) in stable KLN-tTA/pBISA-DL(ATF-4) cells; HTS and hit confirmation
# Type: cell-based, mouse
# Design: Activity 10 uM / Activity 2.5 uM / Activity 5 uM: unit not given here
# Conditions: confirmed hits of the screen (Table 5); for Activity 5 uM: compound at 5 uM; for Activity 10 uM: compound at 10 uM; for Activity 2.5 uM: compound at 2.5 uM
# From the text: For assay development, a bi-directional plasmid was designed in which a common promoter/enhancer complex drives the transcription of firefly luciferase (F-luc) ORF fused to the 5′ untranslated region (UTR) of ATF-4, and of the renilla luciferase (R-luc) ORF fused to a 90-nucleotide 5′ UTR derived from the plasmid (FIG. 6A). Because the tetracycline-regulated transactivator ((tTA), required for driving transcription from this vector) is not normally expressed in the mammalian cells, stable KLN cancer cells were constructed that expressed tTA (KLN-tTA).
# The KLN-tTA colonies that drove expression of reporter genes from pBISA-DL plasmid were selected by transient transfection and dual luciferase assay. One of these KLN-tTA cell lines was transfected with the pBISA-DL^(ATF-4) expression vector, stable colonies were selected by dual luciferase assay and expanded. To determine if reduced availability of the eIF2*GTP*Met-tRNAi ternary complex increased the translation of firefly luciferase and decreased translation of renilla luciferase, selected KLN-tTA/pBISA-DL^(AFT-4) colonies were treated with thapsigargin (TG) or tunicamycin (TU), two agents known to cause phosphorylation of eIF2α.
# This assay was then adapted for high throughput screening in 96 and 384 well plates. This was done by evaluating the cell density, length of exposure to compounds, DMSO tolerance and optimum firefly and renilla substrate. We then challenged these cells with thapsigargin or DMSO. […] Cell-based assays usually have higher variation than homogeneous in vitro assays due to position effect in the plate, and other variables associated with handling of cells and the plates.
# Screening was conducted in 384 well white opaque plates (Nalge Nunc), 100 μl volume RPMI+10% fetal bovine serum. Cells were plated at the sub-confluent density of 10,000 cells/well, and allowed to attach for a period of 16-18 hours at 37° C., 5% CO2. Compounds were added as 1 μl of a 1 mM DMSO stock solution for a final screening concentration of 10 μM, using low-volume tips for transfer (Molecular Bioproducts). Cells were then incubated in the presence of compound for an additional sixteen hours, again at 37° C., 5% CO2. Following incubation 70 μl of the culture medium was removed from each well to allow for reagent addition and plates were allowed to equilibrate to room temperature for thirty minutes. Firefly luciferase reporter activity was then read by the addition of thirty microliters of Dual Glo Luciferase reagent (Promega), followed by one hour incubation at room temperature to allow for adequate signal buildup. Luminescence counting was conducted on a Microbeta Trilux using a 1 second read time. Renilla luciferase reporter activity was measured following addition of 30 μl Stop and Glo Luciferase reagent (Promega) and incubation identical to the one carried out for the firefly luciferase one.
# Compound scores were interpreted as firefly luciferase activity divided by renilla luciferase activity, normalized to the plate's DMSO control. […] All data analysis was conducted using the BioAssay HTS software package (CambridgeSoft).
# 102,709 compounds in the NCI Open Chemical Repository were then screened using this HTS assay. […] Initial hits were confirmed by repeating the same dual luciferase assay in 96 well plates. Briefly, 20,000 cells/well were plated in triplicate for each concentration (10, 5 and 2.5 μM) of the compounds.
structure (smiles),measurement,value
ClCCN(CCCl)c1ccc(C(Cl)(c2ccc(N(CCCl)CCCl)cc2)c2ccc(N(CCCl)CCCl)cc2)cc1 [Compound 89864],Activity 5 uM,9.4
same,Activity 10 uM,10.1
Clc1ccccc1-c1ncc(-c2ccccc2)o1 [Compound 90299],Activity 2.5 uM,2.1
same,Activity 10 uM,3.21
Clc1ccc(-c2ncc(-c3ccccc3)o2)c(Cl)c1 [Compound 90467],Activity 2.5 uM,2.6
same,Activity 10 uM,3.88
Cc1cccc(-c2ncc(-c3ccccc3)o2)c1 [Compound 90777],Activity 5 uM,6.553
same,Activity 10 uM,8.406
CCC[N+]1=C(/C=C/c2cc(C)c3cccnc3c2O)C(C)(C)c2ccccc21 [Compound 91815],Activity 2.5 uM,3.3
same,Activity 10 uM,15.17
CC1=C/C(=C\C=C2/N(C)c3c(C)cccc3C2(C)C)C(=O)c2ncccc21 [Compound 91816],Activity 2.5 uM,17.64
same,Activity 10 uM,29.75
Cc1ccc(O)c(-n2nc3ccccc3n2)c1 [Compound 91885],Activity 5 uM,3.742
same,Activity 10 uM,4.473
O=C1c2ccccc2C(=O)c2c1ccc1c2[nH]c2ccccc21 [Compound 92938],Activity 2.5 uM,3.41
same,Activity 10 uM,4.68
COc1ccc(-c2coc3cc(O)ccc3c2=O)cc1 [Compound 93360],Activity 5 uM,11.08
same,Activity 10 uM,10.283
Cc1cc2c(C)c3cccc[n+]3cc2c2ccccc12.[O-][Cl+3]([O-])([O-])[O-] [Compound 93861],Activity 5 uM,2.622
same,Activity 10 uM,3.171
Cc1cc(/C=N/Nc2ccc3ccccc3n2)c(O)c2ncccc12 [Compound 94029],Activity 5 uM,1.934
same,Activity 10 uM,3.2135
O=C(OC1CC2CC1C1CC=CC21)c1ccc([N+](=O)[O-])cc1 (centres unmarked) [Compound 94582],Activity 5 uM,17.83
same,Activity 10 uM,17.458
O=C(OC1CC2CC1C1CC3OC3C21)c1ccccc1 (centres unmarked) [Compound 94585],Activity 5 uM,3.148
same,Activity 10 uM,3.525
COc1ccc([N+](=O)[O-])c(C(OC(C)=O)OC(C)=O)c1OC(C)=O [Compound 95832],Activity 2.5 uM,0.46
same,Activity 10 uM,3.2
ClCCN(CCCl)c1ccc(C2N(Cc3ccccc3)c3ccccc3N2Cc2ccccc2)cc1 [Compound 96306],Activity 5 uM,2.2
same,Activity 10 uM,5.7
CN(CCCl)c1ccc(C2N(Cc3ccccc3)c3ccccc3N2Cc2ccccc2)cc1 [Compound 96375],Activity 5 uM,2
same,Activity 10 uM,5.9
CN(C)c1ccc(/C=C/c2nc3ccccc3[nH]2)cc1 [Compound 96942],Activity 2.5 uM,4.17
same,Activity 10 uM,7.54
CCCCCCCCCCCCCCCCCC[S+](C)CC.[I-] (centres unmarked) [Compound 97372],Activity 2.5 uM,1.62
same,Activity 10 uM,4.98
Cl.Nc1cc2ccccc2c2c1ccc1ccccc12 [Compound 97681],Activity 2.5 uM,1.17
same,Activity 10 uM,8.98
COc1ccc(C2(C)C(C#N)(C#N)C2(C#N)C#N)cc1 [Compound 98409],Activity 5 uM,10.997
same,Activity 10 uM,25.659
NP(Br)(c1ccccc1)(c1ccccc1)c1ccccc1 [Compound 99047],Activity 5 uM,14.82
same,Activity 10 uM,13.186
Oc1c(Cl)cc(Cl)cc1C1N(Cc2ccc(N(CCCl)CCCl)cc2)CCCN1Cc1ccc(N(CCCl)CCCl)cc1 [Compound 99639],Activity 2.5 uM,0.7
same,Activity 10 uM,8.32
COc1ccc(C2=Cc3ccc(OC(C)=O)cc3OC2)cc1 [Compound 99696],Activity 5 uM,3.031
same,Activity 10 uM,3.4275
O=C(c1ccccc1)c1coc(-c2ccccc2)c1 [Compound 100239],Activity 5 uM,6.748
same,Activity 10 uM,7.6705
CCCCc1ccc2nc3cc4ccccc4cc3nc2c1 [Compound 100622],Activity 2.5 uM,2.25
same,Activity 10 uM,3.12
COc1ccc(-c2cc3ccccc3[nH]2)cc1 [Compound 101082],Activity 5 uM,4.772
same,Activity 10 uM,5.896
Cc1ccc(-c2nc(-c3ccc(N=Cc4ccc(N(CCCl)CCCl)cc4C)cc3)cs2)cc1.Cl [Compound 101484],Activity 5 uM,2.4
same,Activity 10 uM,3.4
CCC(=O)Oc1c(Br)cc(C=O)cc1OC [Compound 101539],Activity 5 uM,14.033
same,Activity 10 uM,6.8175
C(=Nc1cnc2ccccc2c1)c1ccccn1 [Compound 101544],Activity 5 uM,2.767
same,Activity 10 uM,3.1185
CC(=O)OCC(OC(C)=O)C(OC(C)=O)C(/C=C/N=[N+]([O-])c1ccccc1)OC(C)=O (centres unmarked) [Compound 102003],Activity 2.5 uM,0.42
same,Activity 10 uM,9.46
CC[CH2][Pb]([CH2]CC)([CH2]CC)[O]C(C)=O [Compound 102516],Activity 10 uM,3.4
CC(=O)N(C)c1ccc(/C=C2\C=Cc3ccccc32)cc1 [Compound 103749],Activity 2.5 uM,2.76
same,Activity 10 uM,5.25
COC1=C2C=[N+](C)C3C(=C2C=CC1OC)Cc1cc2c(cc13)OCO2.O=[N+](O)O (centres unmarked) [Compound 103755],Activity 5 uM,3.09
same,Activity 10 uM,3.394
Ic1ccc(/C=N/Nc2nnc(N/N=C/c3ccc(I)cc3)c3ccccc23)cc1 [Compound 103842],Activity 5 uM,2.6
same,Activity 10 uM,3.3
O=C(Nc1cccc(Cl)c1)Nc1cc(C(F)(F)F)ccc1Cl [Compound 104498],Activity 5 uM,6.367
same,Activity 10 uM,8.4845
NC(=S)N/N=C\c1ncnc2ccccc12 [Compound 104959],Activity 5 uM,5.19
same,Activity 10 uM,5.474
O=C1C(c2c[nH]c3ccccc23)=Nc2ccc(Br)cc21 [Compound 105326],Activity 2.5 uM,9.56
Nc1ccc(N=Nc2ccccc2Cl)c(N)n1 [Compound 106208],Activity 5 uM,1.8
same,Activity 10 uM,4.3
Cc1ccc2nn(-c3ccc(O)cc3)nc2c1 [Compound 106291],Activity 2.5 uM,2.7
same,Activity 10 uM,3.15
CCc1ccc(N=Nc2ccc(N(C)C)cc2)cc1 [Compound 106343],Activity 5 uM,2.6
same,Activity 10 uM,4.1
CCc1ccc(N=Nc2ccccc2)cc1 [Compound 106344],Activity 5 uM,3.1
same,Activity 10 uM,4.1
CCc1ccc(N=Nc2ccc(Br)cc2)cc1 [Compound 106378],Activity 2.5 uM,2.55
same,Activity 10 uM,3.69
Cc1ccc(N=NC2C(=O)c3ccccc3C2=O)cc1 [Compound 106656],Activity 2.5 uM,1.89
same,Activity 10 uM,3.26
C[C@]12CC[C@@H]3c4ccc(Oc5nc(N6CC6)nc(N6CC6)n5)cc4CC[C@H]3[C@@H]1CCC2=O [Compound 106909],Activity 5 uM,1.2
same,Activity 10 uM,3.4
C=CC(C)(C)c1c(OC(C)=O)cc2oc3c(OC(C)=O)c(OC(C)=O)cc(CC=C(C)C)c3c(=O)c2c1O [Compound 107229],Activity 2.5 uM,1.06
same,Activity 10 uM,3.14
COc1cccc(N=Nc2ccc(N(C)C)cc2)c1 [Compound 108310],Activity 2.5 uM,3.62
same,Activity 10 uM,4.88
CC(C)(C)NC/C(=C\c1ccccc1)C(=O)c1ccccc1 [Compound 109156],Activity 5 uM,6.2
same,Activity 10 uM,9.1
CCN(CC)CCCNc1c2ccccc2nc2ccccc12.Cl.Cl [Compound 109326],Activity 2.5 uM,0.69
same,Activity 10 uM,17.89
Cc1cc(N(C)C)cc(C)c1C(=Nc1ccc(N=C(NO)c2c(C)cc(N(C)C)cc2C)cc1)NO.Cl [Compound 109535],Activity 5 uM,3.9
same,Activity 10 uM,6.3
Clc1ccc(-c2cc(C3CO3)c3cc(Cl)cc(Cl)c3n2)cc1 (centres unmarked) [Compound 112369],Activity 5 uM,1.4
same,Activity 10 uM,3.1
c1ccc(-c2cc3ccccc3[nH]2)nc1 [Compound 112668],Activity 5 uM,2.854
same,Activity 10 uM,3.3905
CC(=O)Oc1cccc2cc3cc(C)cc(OC(C)=O)c3c(OC(C)=O)c12 [Compound 112921],Activity 2.5 uM,97.42
same,Activity 10 uM,242.82
c1ccc2c(c1)cnc1cc3c(cc12)ncc1ccccc13 [Compound 113085],Activity 2.5 uM,3.18
same,Activity 10 uM,5.05
